The record followed here is the supplement of paper PMC11208160.

A short description of the data set: recombinant barcode read abundance after kanamycin selection (control-corrected) (log10(CPM+1)); higher = more efficient recombination; sequences stand for … in AGTGCAGAGAAAATCGGCCAGTTTTCTCTGCCTGCAGTCCGCATGCCGT…AGATTTATGCAGCGGACTGCCTTTCTCCCAAAGTGATAAACCGGACAGTATCATGGACCGGTTTTCCCGGTAATCCGTATTTGCAAGGTTGGTTTCACT; site = the 11-nt target. Summed up: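 Targets were screened in pooled form in E. coli against IS621 bridge RNA target-binding loops. Recombination efficiency is based on barcode counts at recombinant junctions in counts per million, averaged and corrected for the control. Numbers are shown as log10(CPM+1), with duplicate plates on chloramphenicol/ampicillin LB agar (control) or chloramphenicol/ampicillin/kanamycin with 0.1 mM IPTG.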
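Note: IS621 recombinase and bridge RNA in Escherichia coli cells.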

Turning to “AGTATCCCTTGGGTTCTAACCTGTTGCCG (site GTCTCATCTAT)”, the “recombinant barcode read abundance (log10)” value turned out to be 0.2. On to “AGTATGACTTGGGTTCTAACCTGTTGCCT (site AGTATGACTAG)”, for which the “recombinant barcode read abundance (log10)” value turned out to be 0.923. As for “AGTATGACTTGGGTTCTAACCTGTTGCCT (site CGTATGACTAG)”, the “recombinant barcode read abundance (log10)” value is 0.304. The result for “AGTATGACTTGGGTTCTAACCTGTTGCCT (site GGTATGACTAG)” reads 0.0345.

In the case of “AGTATGACTTGGGTTCTAACCTGTTGCCT (site TGTATGACTAG)”, the “recombinant barcode read abundance (log10)” value came to 0.0581.

In the case of “AGTCATACTTGGGTTCTAACCTGTTGCTT (site AGTCATACTAA)”, the “recombinant barcode read abundance (log10)” value turned out to be 0.199. The result for “AGTCATACTTGGGTTCTAACCTGTTGCTT (site AGTCGGACTAA)” reads 0.0739; that for “AGTCGACCTTGGGTTCTAACCTGTTGCCT (site AGTCGACCTAG)”, 1.78; that for “AGTCGACCTTGGGTTCTAACCTGTTGCCT (site CGTCGACCTAG)”, 0.328.

Take “AGTCGACCTTGGGTTCTAACCTGTTGCCT (site GGTCGACCTAG)”: the “recombinant barcode read abundance (log10)” value stood at 0.112. For the sequence “AGTCGACCTTGGGTTCTAACCTGTTGCCT (site TGTCGACCTAG)”, the “recombinant barcode read abundance (log10)” value turned out to be 0.143. The result for “AGTCGTTCTTGGGTTCTAACCTGTTGCCT (site AGTCGTTCTAG)” reads 0.23; that for “AGTCGTTCTTGGGTTCTAACCTGTTGCCT (site GAGTTCACTCT)”, 0.141. The result for “AGTCTAGCTTGGGTTCTAACCTGTTGCCC (site AGTCTAGCTAG)” reads 0.421; that for “AGTCTAGCTTGGGTTCTAACCTGTTGCCC (site AGTCTAGCTCG)”, 1.16; that for “AGTCTAGCTTGGGTTCTAACCTGTTGCCC (site AGTCTAGCTGG)”, 1.11. The result for “AGTCTAGCTTGGGTTCTAACCTGTTGCCC (site AGTCTAGCTTG)” reads 0.149; that for “AGTCTAGCTTGGGTTCTAACCTGTTGCTC (site AGTCTAGCTGA)”, 0.336; that for “AGTCTAGCTTGGGTTCTAACCTGTTGCTC (site AGTCTAGCTTA)”, 0.62. Regarding “AGTCTGCCTTGGGTTCTAACCTGTTGCTG (site AGTCTGCCTCA)”, the “recombinant barcode read abundance (log10)” value turned out to be 0.686.

On to “AGTCTGCCTTGGGTTCTAACCTGTTGCTG (site GCCGATACTTG)”, for which the “recombinant barcode read abundance (log10)” value was found to be 0.0929.

“AGTCTGGCTTGGGTTCTAACCTGTTGCCT (site AGTCTGGCTAG)”: the “recombinant barcode read abundance (log10)” value came out at 0.146. As for “AGTCTGGCTTGGGTTCTAACCTGTTGCCT (site TGTCTGGCTAG)”, the figure is 0.108. The result for “AGTGACTCTTGGGTTCTAACCTGTTGCCT (site AGTCTCTCTAG)” reads 0.0765; that for “AGTGACTCTTGGGTTCTAACCTGTTGCCT (site AGTGACTCTAG)”, 2.32; that for “AGTTCCACTTGGGTTCTAACCTGTTGCCT (site AGTTACACTAG)”, 0.0694. As for “AGTTCCACTTGGGTTCTAACCTGTTGCCT (site AGTTCCACTAG)”, the figure is 0.324. Take “AGTTCCACTTGGGTTCTAACCTGTTGCCT (site AGTTGCACTAG)”: the “recombinant barcode read abundance (log10)” value is 0.0253. The result for “AGTTCCACTTGGGTTCTAACCTGTTGCCT (site AGTTTCACTAG)” reads 0.102. As for “AGTTCGTCTTGGGTTCTAACCTGTTGCCG (site AGCTCGTCTCC)”, the figure is 0.29; as for “AGTTCGTCTTGGGTTCTAACCTGTTGCCG (site AGTTCGTCTCG)”, 0.314. The result for “AGTTCTCCTTGGGTTCTAACCTGTTGCCG (site AGTTCTCCTCG)” reads 0.0496.
